{
  "source": "ChEMBL document CHEMBL3885861",
  "about": "“Open TG-GATES”",
  "organism": "Rattus norvegicus",
  "experiment": "Open TG-GATES - Regimen: Daily Repeat",
  "type": "toxicity, organism-based, Sprague-Dawley",
  "parameters": "regimen Daily Repeat, gender Male, age 6 weeks",
  "conditions": "in vivo, po, 3 mg/kg, route gavage, dose level Low; for APTT / Bas / Eos / Fbg / Hb / Ht / Lym / MCH / MCHC / MCV / Mono / Neu / PT / Plat / RBC / Ret / WBC: tissue Blood",
  "key": {"[1]": {"conditions": "72 h, tissue Kidney, time 3 day"}, "[2]": {"conditions": "72 h, tissue Plasma, time 3 day"}},
  "data": [
    {"compound": "Cn1cnc([N+](=O)[O-])c1Sc1ncnc2nc[nH]c12", "note": "[AZATHIOPRINE]", "values": [
      {"measurement": "TERMINAL_BW", "setting": "72 h, time 3 day", "result": 215.2, "unit": "g"},
      {"measurement": "APTT", "setting": "72 h, time 3 day", "result": 20.9, "unit": "s"},
      {"measurement": "Bas", "setting": "72 h, time 3 day", "result": 0, "unit": "%"},
      {"measurement": "Eos", "setting": "72 h, time 3 day", "result": 0.4, "unit": "%"},
      {"measurement": "Fbg", "setting": "72 h, time 3 day", "result": 312.4, "unit": "mg/dL"},
      {"measurement": "Hb", "setting": "72 h, time 3 day", "result": 13, "unit": "g/dL"},
      {"measurement": "Ht", "setting": "72 h, time 3 day", "result": 38.6, "unit": "%"},
      {"measurement": "Lym", "setting": "72 h, time 3 day", "result": 83.6, "unit": "%"},
      {"measurement": "MCH", "setting": "72 h, time 3 day", "result": 22, "unit": "pg"},
      {"measurement": "MCHC", "setting": "72 h, time 3 day", "result": 33.6, "unit": "%"},
      {"measurement": "MCV", "setting": "72 h, time 3 day", "result": 65.4, "unit": "fL"},
      {"measurement": "Mono", "setting": "72 h, time 3 day", "result": 1.8, "unit": "%"},
      {"measurement": "Neu", "setting": "72 h, time 3 day", "result": 13, "unit": "%"},
      {"measurement": "PT", "setting": "72 h, time 3 day", "result": 16.2, "unit": "s"},
      {"measurement": "Plat", "setting": "72 h, time 3 day", "result": 125.6, "unit": "x10_4/uL"},
      {"measurement": "RBC", "setting": "72 h, time 3 day", "result": 590, "unit": "x10_4/ul"},
      {"measurement": "Ret", "setting": "72 h, time 3 day", "result": 7.5, "unit": "%"},
      {"measurement": "WBC", "setting": "72 h, time 3 day", "result": 81.3, "unit": "x10_2/uL"},
      {"measurement": "KIDNEY_L", "setting": "[1]", "result": 1, "unit": "g"},
      {"measurement": "KIDNEY_R", "setting": "[1]", "result": 1, "unit": "g"},
      {"measurement": "KIDNEY_TOTAL", "setting": "[1]", "result": 1.9, "unit": "g"},
      {"measurement": "LIVER", "setting": "72 h, tissue Liver, time 3 day", "result": 10.5, "unit": "g"},
      {"measurement": "A/G", "setting": "[2]", "result": 1.3},
      {"measurement": "ALP", "setting": "[2]", "result": 1666, "unit": "IU/L"},
      {"measurement": "ALT", "setting": "[2]", "result": 45, "unit": "IU/L"},
      {"measurement": "AST", "setting": "[2]", "result": 73.2, "unit": "IU/L"},
      {"measurement": "BUN", "setting": "[2]", "result": 17.6, "unit": "mg/dL"},
      {"measurement": "CRE", "setting": "[2]", "result": 0.1, "unit": "mg/dL"},
      {"measurement": "Ca", "setting": "[2]", "result": 11.3, "unit": "mg/dL"},
      {"measurement": "Cl", "setting": "[2]", "result": 106.6, "unit": "meq/L"},
      {"measurement": "DBIL", "setting": "[2]", "result": 0, "unit": "mg/dL"},
      {"measurement": "GLC", "setting": "[2]", "result": 188.8, "unit": "mg/dL"},
      {"measurement": "IP", "setting": "[2]", "result": 6.7, "unit": "mg/dL"},
      {"measurement": "K", "setting": "[2]", "result": 4.4, "unit": "meq/L"},
      {"measurement": "LDH", "setting": "[2]", "result": 192.8, "unit": "IU/L"},
      {"measurement": "Na", "setting": "[2]", "result": 143.4, "unit": "meq/L"},
      {"measurement": "PL", "setting": "[2]", "result": 142.8, "unit": "mg/dL"},
      {"measurement": "RALB", "setting": "[2]", "result": 3.1, "unit": "g/dL"},
      {"measurement": "TBIL", "setting": "[2]", "result": 0.008, "unit": "mg/dL"},
      {"measurement": "TC", "setting": "[2]", "result": 73.8, "unit": "mg/dL"},
      {"measurement": "TG", "setting": "[2]", "result": 85, "unit": "mg/dL"},
      {"measurement": "TP", "setting": "[2]", "result": 5.6, "unit": "g/dL"},
      {"measurement": "gamma-GTP", "setting": "[2]", "result": 1, "unit": "IU/L"},
      {"measurement": "TERMINAL_BW", "setting": "[…], time 7 day", "result": 233.9, "unit": "g"},
      {"measurement": "TERMINAL_BW", "setting": "[…], time 14 day", "result": 269.8, "unit": "g"},
      {"measurement": "TERMINAL_BW", "setting": "[…], time 28 day", "result": 343.6, "unit": "g"},
      {"measurement": "APTT", "setting": "[…], time 7 day", "result": 21.4, "unit": "s"},
      {"measurement": "Bas", "setting": "[…], time 7 day", "result": 0, "unit": "%"},
      {"measurement": "Eos", "setting": "[…], time 7 day", "result": 1, "unit": "%"},
      {"measurement": "Fbg", "setting": "[…], time 7 day", "result": 312.6, "unit": "mg/dL"},
      {"measurement": "Hb", "setting": "[…], time 7 day", "result": 14, "unit": "g/dL"},
      {"measurement": "Ht", "setting": "[…], time 7 day", "result": 40.2, "unit": "%"},
      {"measurement": "Lym", "setting": "[…], time 7 day", "result": 79, "unit": "%"},
      {"measurement": "MCH", "setting": "[…], time 7 day", "result": 21.4, "unit": "pg"},
      {"measurement": "MCHC", "setting": "[…], time 7 day", "result": 34.9, "unit": "%"},
      {"measurement": "MCV", "setting": "[…], time 7 day", "result": 61.3, "unit": "fL"},
      {"measurement": "Mono", "setting": "[…], time 7 day", "result": 2.2, "unit": "%"},
      {"measurement": "Neu", "setting": "[…], time 7 day", "result": 17, "unit": "%"},
      {"measurement": "PT", "setting": "[…], time 7 day", "result": 15.8, "unit": "s"},
      {"measurement": "Plat", "setting": "[…], time 7 day", "result": 115.5, "unit": "x10_4/uL"},
      {"measurement": "RBC", "setting": "[…], time 7 day", "result": 655.8, "unit": "x10_4/ul"},
      {"measurement": "Ret", "setting": "[…], time 7 day", "result": 5.5, "unit": "%"},
      {"measurement": "WBC", "setting": "[…], time 7 day", "result": 121.2, "unit": "x10_2/uL"},
      {"measurement": "APTT", "setting": "[…], time 14 day", "result": 22.5, "unit": "s"},
      {"measurement": "Bas", "setting": "[…], time 14 day", "result": 0, "unit": "%"},
      {"measurement": "Eos", "setting": "[…], time 14 day", "result": 0.8, "unit": "%"},
      {"measurement": "Fbg", "setting": "[…], time 14 day", "result": 325.2, "unit": "mg/dL"},
      {"measurement": "Hb", "setting": "[…], time 14 day", "result": 14.6, "unit": "g/dL"},
      {"measurement": "Ht", "setting": "[…], time 14 day", "result": 41, "unit": "%"},
      {"measurement": "Lym", "setting": "[…], time 14 day", "result": 77.4, "unit": "%"},
      {"measurement": "MCH", "setting": "[…], time 14 day", "result": 21.4, "unit": "pg"},
      {"measurement": "MCHC", "setting": "[…], time 14 day", "result": 35.7, "unit": "%"},
      {"measurement": "MCV", "setting": "[…], time 14 day", "result": 59.9, "unit": "fL"},
      {"measurement": "Mono", "setting": "[…], time 14 day", "result": 1.8, "unit": "%"},
      {"measurement": "Neu", "setting": "[…], time 14 day", "result": 19, "unit": "%"},
      {"measurement": "PT", "setting": "[…], time 14 day", "result": 16.3, "unit": "s"},
      {"measurement": "Plat", "setting": "[…], time 14 day", "result": 113.2, "unit": "x10_4/uL"},
      {"measurement": "RBC", "setting": "[…], time 14 day", "result": 684.8, "unit": "x10_4/ul"},
      {"measurement": "Ret", "setting": "[…], time 14 day", "result": 3.6, "unit": "%"},
      {"measurement": "WBC", "setting": "[…], time 14 day", "result": 82.1, "unit": "x10_2/uL"},
      {"measurement": "APTT", "setting": "[…], time 28 day", "result": 24.6, "unit": "s"},
      {"measurement": "Bas", "setting": "[…], time 28 day", "result": 0, "unit": "%"},
      {"measurement": "Eos", "setting": "[…], time 28 day", "result": 1, "unit": "%"},
      {"measurement": "Fbg", "setting": "[…], time 28 day", "result": 302.2, "unit": "mg/dL"},
      {"measurement": "Hb", "setting": "[…], time 28 day", "result": 14.6, "unit": "g/dL"},
      {"measurement": "Ht", "setting": "[…], time 28 day", "result": 42.3, "unit": "%"}
    ]}
  ]
}
